Experimental data: patent publication US8618082B2, “Lupeol anti-tumor agent and uses thereof” (Wisconsin Alumni Research Foundation, priority 2004, dated 2013)

Key:
CD-1 mouse skin = format: in vivo
Description: FIG. 8. Two stage carcinogenesis tumor data in CD-1 mice: Inhibitory effect of Lupeol on DMBA-initiated and TPA-promoted tumor formation in CD-1 mice: In each group, 20 animals were used. Tumorigenesis was initiated in the animals by a single topical application of 200 nmol DMBA in 0.2 ml vehicle on the dorsal shaved skin, and 1 week later, the tumor growth was promoted with twice-weekly applications of 3.2 nmol TPA in 0.2 ml vehicle. To assess its anti-skin tumor-promoting effect, Lupeol at a dose of 2 mg/animal was applied topically 30 min prior to each TPA application in different groups. Treatment with TPA alone or Lupeol plus TPA was repeated twice weekly up to the termination of the experiments at 28 weeks. Animals in all the groups were watched for any apparent signs of toxicity, such as weight loss or mortality during the entire period of study. Skin tumor formation was recorded weekly, and tumors larger than 1 mm in diameter were included in the cumulative number only if they persisted for 2 weeks or more. The tumor data is represented as the percentage of mice with tumors (a), the number of tumors per mouse (b) and the number of tumors per group (c). The data was analyzed by Wilcoxon rank sum test and χ^2 analysis.
Female CD-1 mice were used in DMBA- and TPA-induced, two-stage skin tumorigenesis protocol as described earlier (Katiyar et al., 1996). The dorsal side of the skin was shaved using electric clippers, and the mice with hair cycles in the resting phase were used for tumor studies. In each group, 20 animals were used. Tumorigenesis was initiated in the animals by a single topical application of 200 nmol DMBA in 0.2 ml vehicle on the dorsal shaved skin, and 1 week later, the tumor growth was promoted with twice-weekly applications of 3.2 nmol TPA in 0.2 ml vehicle. […] Treatment with TPA alone or Lupeol plus TPA was repeated twice weekly up to the termination of the experiments at 28 weeks. Animals in all the groups were watched for any apparent signs of toxicity, such as weight loss or mortality during the entire period of study. Skin tumor formation was recorded weekly, and tumors larger than 1 mm in diameter were included in the cumulative number only if they persisted for 2 weeks or more.
A two-tailed Student's t test was used to assess the statistical significance between the TPA treated and Lupeol+TPA treated groups. A p value<0.05 was considered statistically significant. In tumorigenesis experiments, the statistical significance of difference between TPA and Lupeol+TPA groups was evaluated by the Wilcoxon rank sum test and χ^2 analysis.

AsPC-1 cells = assay: Viability of AsPC-1 cells, MTT assay; format: cell-based; details: Lupeol for 24-72 hours
Description: FIG. 20 depicts effect of Lupeol on viability of AsPC-1 cells. The cells were treated with specified concentrations of Lupeol for 24, 48 and 72 h, and cell viability was determined by MTT assay.

[1] = test system: Fas receptor in LNCaP cells; assay: Fas-siRNA silenced LNCaP cells: Fas expression and viability; format: cell-based, human; details: vs LNCaP cells with Fas receptor expression treated with Lupeol
Description: FIG. 17 depicts effect of Lupeol treatment on the growth of CaP cells transfected with Fas-siRNA and on the expression of Fas receptor in Fas-silenced CaP cells: (A). Cells were treated with specified concentrations of Lupeol alone, anti-Fas mAb or non-sense siRNA (negative control), Fas-siRNA, combination (Lupeol+Fas-siRNA) and combination (anti-Fas mAb+Fas-siRNA). The expression of Fas receptor protein in total cell lysate was determined by western blot analysis. Equal loading was confirmed by stripping immunoblots and reprobing them for β-actin. The immunoblots shown here are representative of three independent experiments with similar results. (B). Cells were treated with specified concentrations of Lupeol alone, anti-Fas mAb or non-sense siRNA (negative control), Fas-siRNA, combination (Lupeol+Fas-siRNA) and combination (anti-Fas mAb+Fas-siRNA). The values represent percent viable cells where vehicle-treated cells were regarded as 100% viable. Data represents mean value of percent viable cells±S.E of three independent experiments.
To determine whether Lupeol induces apoptosis of LNCaP cells selectively through Fas receptor, we used siRNA technology. siRNA's have the ability to silence […] any specific protein. We designed siRNA against Fas receptor protein and treated LNCaP cell with them.

[2] = Lupeol 2 mg/animal, 28 weeks, vs non-Lupeol treated group

Structure (SMILES): C=C(C)[C@@H]1CC[C@]2(C)CC[C@]3(C)[C@H](CC[C@@H]4[C@@]5(C)CC[C@H](O)C(C)(C)[C@@H]5CC[C@]43C)[C@@H]12 [Lupeol, Lup-20(29)-en-3β-ol]
- percentage of mice with skin tumors (CD-1 mouse skin; Lupeol 2 mg/animal topical 30 min prior to each TPA, 28 weeks, non-Lupeol group 100%): 53%
- total number of tumors per group (CD-1 mouse skin; Lupeol 2 mg/animal, 28 weeks, 20 animals, non-Lupeol group 125): 33 tumors
- inhibition of number of tumors per mouse (CD-1 mouse skin; [2]): 74%
- inhibition of total number of tumors (CD-1 mouse skin; [2]): 74%
- number of tumors per mouse (CD-1 mouse skin; Lupeol 2 mg/animal, 28 weeks, non-Lupeol group 6.25): 1.65 tumors per mouse
- latency period of tumor formation (CD-1 mouse skin; Lupeol 2 mg/animal, p<0.05, χ2 test): significantly increased
- body weight gain (CD-1 mouse skin; Lupeol treatment for 28 weeks, data not shown): did not significantly affect
- signs of toxicity (CD-1 mouse skin; mouse, in vivo): none of the treated mice exhibited any signs of toxicity
- cell death of ASPC-1 cells (AsPC-1 cells): highly significant dose dependent cell death
- cell death of Fas-silenced LNCaP cells [1]: reduced cell death
